# From PubChem BioAssay (NCI)
#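 The compound was tested at five concentrations on cells cultured in 96-well plates, with a 48-hour exposure period. GI50 = concentration required for 50% inhibition of growth. TGI is the concentration that stops growth completely.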
# How the values were obtained:
# Assay in all cases: growth of human tumour cells (NCI), 48 h
# CCRF-CEM leukemia = test system: CCRF-CEM leukemia
# NCI-H23 lung = test system: NCI-H23 lung
# SW-620 colon = test system: SW-620 colon
# U251 CNS = test system: U251 CNS
# KM12 colon = test system: KM12 colon
# K-562 leukemia = test system: K-562 leukemia
# SF-539 CNS = test system: SF-539 CNS
# NCI-H460 lung = test system: NCI-H460 lung
# MDA-MB-435 = test system: MDA-MB-435
# HS 578T breast = test system: HS 578T breast
# SF-268 CNS = test system: SF-268 CNS
# SK-MEL-28 melanoma = test system: SK-MEL-28 melanoma
# RPMI-8226 leukemia = test system: RPMI-8226 leukemia
# OVCAR-3 ovarian = test system: OVCAR-3 ovarian
# MALME-3M melanoma = test system: MALME-3M melanoma
# TK-10 renal = test system: TK-10 renal
# COLO 205 colon = test system: COLO 205 colon
# M14 melanoma = test system: M14 melanoma
# PC-3 prostate = test system: PC-3 prostate
# SK-MEL-5 melanoma = test system: SK-MEL-5 melanoma
# OVCAR-5 ovarian = test system: OVCAR-5 ovarian
# SN12C renal = test system: SN12C renal
# MDA-MB-231 breast = test system: MDA-MB-231 breast
# SNB-19 CNS = test system: SNB-19 CNS
# SK-MEL-2 melanoma = test system: SK-MEL-2 melanoma
# HOP-62 NSCLC = test system: HOP-62 NSCLC
# A549 NSCLC = test system: A549 NSCLC
# SK-OV-3 ovarian = test system: SK-OV-3 ovarian
# MCF7 breast = test system: MCF7 breast
# ACHN renal = test system: ACHN renal
# HCT-15 colon = test system: HCT-15 colon
# T-47D breast = test system: T-47D breast
# HOP-92 NSCLC = test system: HOP-92 NSCLC
# UACC-62 melanoma = test system: UACC-62 melanoma
# MOLT-4 leukemia = test system: MOLT-4 leukemia
# NCI-H226 lung = test system: NCI-H226 lung
# SF-295 CNS = test system: SF-295 CNS
# EKVX NSCLC = test system: EKVX NSCLC
# RXF 393 renal = test system: RXF 393 renal
# UO-31 renal = test system: UO-31 renal
# HCC-2998 colon = test system: HCC-2998 colon
# SR leukemia = test system: SR leukemia
# 786-0 renal = test system: 786-0 renal
# LOX IMVI melanoma = test system: LOX IMVI melanoma
# BT-549 breast = test system: BT-549 breast
# UACC-257 melanoma = test system: UACC-257 melanoma
# HT29 colon = test system: HT29 colon
# NCI-H522 lung = test system: NCI-H522 lung
# OVCAR-4 ovarian = test system: OVCAR-4 ovarian
# NCI/ADR-RES ovarian = test system: NCI/ADR-RES ovarian
# OVCAR-8 ovarian = test system: OVCAR-8 ovarian
# HCT-116 colon = test system: HCT-116 colon
# CAKI-1 renal = test system: CAKI-1 renal
# A498 renal = test system: A498 renal
# HL-60(TB) leukemia = test system: HL-60(TB) leukemia
# IGROV1 ovarian = test system: IGROV1 ovarian
# MDA-MB-468 breast = test system: MDA-MB-468 breast
# DU-145 prostate = test system: DU-145 prostate
# SNB-75 CNS = test system: SNB-75 CNS
smiles,measurement,setting,value
COc1cc(-c2nc3ccc(C)cc3[nH]2)ccc1OCc1nnc(-c2ccc(Br)cc2)o1,GI50,CCRF-CEM leukemia,28.3 µM
same,TGI,CCRF-CEM leukemia,> 100 µM
same,GI50,NCI-H23 lung,32 µM
same,TGI,NCI-H23 lung,> 100 µM
same,GI50,SW-620 colon,32.8 µM
same,TGI,SW-620 colon,> 100 µM
same,GI50,U251 CNS,15.2 µM
same,TGI,U251 CNS,55.4 µM
same,GI50,KM12 colon,55.1 µM
same,TGI,KM12 colon,> 100 µM
same,GI50,K-562 leukemia,15.4 µM
same,TGI,K-562 leukemia,> 100 µM
same,GI50,SF-539 CNS,12.6 µM
same,TGI,SF-539 CNS,26.7 µM
same,GI50,NCI-H460 lung,27.8 µM
same,TGI,NCI-H460 lung,> 100 µM
same,GI50,MDA-MB-435,18.7 µM
same,TGI,MDA-MB-435,53.3 µM
same,GI50,HS 578T breast,12.5 µM
same,TGI,HS 578T breast,45.4 µM
same,GI50,SF-268 CNS,36.1 µM
same,TGI,SF-268 CNS,> 100 µM
same,GI50,SK-MEL-28 melanoma,22.2 µM
same,TGI,SK-MEL-28 melanoma,> 100 µM
same,GI50,RPMI-8226 leukemia,8.54 µM
same,TGI,RPMI-8226 leukemia,> 100 µM
same,GI50,OVCAR-3 ovarian,20.5 µM
same,TGI,OVCAR-3 ovarian,52.9 µM
same,GI50,MALME-3M melanoma,12.4 µM
same,TGI,MALME-3M melanoma,28.7 µM
same,GI50,TK-10 renal,27.6 µM
same,TGI,TK-10 renal,94.7 µM
same,GI50,COLO 205 colon,27.1 µM
same,TGI,COLO 205 colon,> 100 µM
same,GI50,M14 melanoma,40.2 µM
same,TGI,M14 melanoma,> 100 µM
same,GI50,PC-3 prostate,40.3 µM
same,TGI,PC-3 prostate,> 100 µM
same,GI50,SK-MEL-5 melanoma,11.8 µM
same,TGI,SK-MEL-5 melanoma,34.1 µM
same,GI50,OVCAR-5 ovarian,57.2 µM
same,TGI,OVCAR-5 ovarian,> 100 µM
same,GI50,SN12C renal,29.9 µM
same,TGI,SN12C renal,> 100 µM
same,GI50,MDA-MB-231 breast,14.4 µM
same,TGI,MDA-MB-231 breast,33.1 µM
same,GI50,SNB-19 CNS,52.3 µM
same,TGI,SNB-19 CNS,> 100 µM
same,GI50,SK-MEL-2 melanoma,27.7 µM
same,TGI,SK-MEL-2 melanoma,> 100 µM
same,GI50,HOP-62 NSCLC,28.4 µM
same,TGI,HOP-62 NSCLC,> 100 µM
same,GI50,A549 NSCLC,31 µM
same,TGI,A549 NSCLC,> 100 µM
same,GI50,SK-OV-3 ovarian,23.6 µM
same,TGI,SK-OV-3 ovarian,> 100 µM
same,GI50,MCF7 breast,4.28 µM
same,TGI,MCF7 breast,70.7 µM
same,GI50,ACHN renal,27.2 µM
same,TGI,ACHN renal,> 100 µM
same,GI50,HCT-15 colon,12.2 µM
same,TGI,HCT-15 colon,85.7 µM
same,GI50,T-47D breast,7.33 µM
same,TGI,T-47D breast,34.4 µM
same,GI50,HOP-92 NSCLC,15.6 µM
same,TGI,HOP-92 NSCLC,> 100 µM
same,GI50,UACC-62 melanoma,20.1 µM
same,TGI,UACC-62 melanoma,> 100 µM
same,GI50,MOLT-4 leukemia,6.86 µM
same,TGI,MOLT-4 leukemia,> 100 µM
same,GI50,NCI-H226 lung,15.3 µM
same,TGI,NCI-H226 lung,> 100 µM
same,GI50,SF-295 CNS,14.9 µM
same,TGI,SF-295 CNS,34.8 µM
same,GI50,EKVX NSCLC,18.9 µM
same,TGI,EKVX NSCLC,> 100 µM
same,GI50,RXF 393 renal,20.4 µM
same,TGI,RXF 393 renal,59.8 µM
same,GI50,UO-31 renal,11.1 µM
same,TGI,UO-31 renal,> 100 µM
same,GI50,HCC-2998 colon,26.2 µM
same,TGI,HCC-2998 colon,> 100 µM
same,GI50,SR leukemia,10.9 µM
same,TGI,SR leukemia,56.4 µM
same,GI50,786-0 renal,16.6 µM
same,TGI,786-0 renal,45.5 µM
same,GI50,LOX IMVI melanoma,12.1 µM
same,TGI,LOX IMVI melanoma,27.5 µM
same,GI50,BT-549 breast,21.3 µM
same,TGI,BT-549 breast,48.8 µM
same,GI50,UACC-257 melanoma,17.3 µM
same,TGI,UACC-257 melanoma,46.6 µM
same,GI50,HT29 colon,10.8 µM
same,TGI,HT29 colon,53.6 µM
same,GI50,NCI-H522 lung,17.1 µM
same,TGI,NCI-H522 lung,45 µM
same,GI50,OVCAR-4 ovarian,14.3 µM
same,TGI,OVCAR-4 ovarian,38.4 µM
same,GI50,NCI/ADR-RES ovarian,19.3 µM
same,TGI,NCI/ADR-RES ovarian,> 100 µM
same,GI50,OVCAR-8 ovarian,16.1 µM
same,TGI,OVCAR-8 ovarian,45.3 µM
same,GI50,HCT-116 colon,25.4 µM
same,TGI,HCT-116 colon,> 100 µM
same,GI50,CAKI-1 renal,25.5 µM
same,TGI,CAKI-1 renal,> 100 µM
same,GI50,A498 renal,30.3 µM
same,TGI,A498 renal,93.3 µM
same,GI50,HL-60(TB) leukemia,18.6 µM
same,TGI,HL-60(TB) leukemia,39 µM
same,GI50,IGROV1 ovarian,16.3 µM
same,TGI,IGROV1 ovarian,> 100 µM
same,GI50,MDA-MB-468 breast,14 µM
same,TGI,MDA-MB-468 breast,30.9 µM
same,GI50,DU-145 prostate,51.7 µM
same,TGI,DU-145 prostate,> 100 µM
same,GI50,SNB-75 CNS,12.2 µM
same,TGI,SNB-75 CNS,56.8 µM
